Laboratory results reported in ChEMBL document CHEMBL5244223, “l,8-Naphthalimide based DNA intercalators and anticancer agents. A systematic review from 2007 to 2017” (Eur J Med Chem, 2018).
In brackets after ≈: the same amount, converted by molar mass. Each block holds one compound with its values, some of them ahead of it.

Columns and labels:
Escherichia coli = assay: Antibacterial activity against Escherichia coli MTCC 443 assessed as inhibition of bacterial growth by agar well diffusion assay; format: functional
[1] = test system: Staphylococcus epidermidis; assay: Antibacterial activity against Staphylococcus epidermidis MTCC 435 assessed as inhibition of bacterial growth by agar well diffusion assay; format: functional
Pseudomonas aeruginosa = assay: Antibacterial activity against Pseudomonas aeruginosa MTCC 741 assessed as inhibition of bacterial growth by agar well diffusion assay; format: functional
Calf thymus DNA = assay: Binding affinity to calf thymus DNA assessed as DNA intercalation by measuring change in melting temperature by thermal denaturation assay; format: nucleic-acid assay; conditions: Bos taurus
Staphylococcus aureus = assay: Antibacterial activity against Staphylococcus aureus MTCC 96 assessed as inhibition of bacterial growth by agar well diffusion assay; format: functional
HCT-116 = assay: Antiproliferative activity against human HCT-116 cells assessed as inhibition of cell proliferation incubated for 48 hrs by MTT assay; format: functional, cell-based; conditions: HCT-116, 48 h
K562 [2] = assay: Antiproliferative activity against human K562 cells assessed as inhibition of cell proliferation incubated for 48 hrs by MTT assay; format: functional, cell-based; conditions: K562, 48 h
[3] = Antiproliferative activity against human QSG7701 cells assessed as inhibition of cell proliferation incubated for 48 hrs by MTT assay; format: toxicity, cell-based
SMMC-7721 = assay: Antiproliferative activity against human SMMC-7721 cells assessed as inhibition of cell proliferation incubated for 48 hrs by MTT assay; format: functional, cell-based; conditions: SMMC-7721, 48 h
MDA-MB-231 = assay: Antiproliferative activity against human MDA-MB-231 cells assessed as inhibition of cell proliferation incubated for 48 hrs by MTT assay; format: functional, cell-based; conditions: MDA-MB-231, 48 h
HepG2 = assay: Antiproliferative activity against human HepG2 cells assessed as inhibition of cell proliferation incubated for 48 hrs by MTT assay; format: functional, cell-based; conditions: HepG2, 48 h
K562 [4] = assay: Cytotoxicity against human K562 cells assessed as inhibition of cell growth incubated for 48 hrs by MTT assay; format: functional, cell-based; conditions: K562, 48 h
HeLa = assay: Cytotoxicity against human HeLa cells assessed as inhibition of cell growth incubated for 48 hrs by MTT assay; format: functional, cell-based
A549 = assay: Cytotoxicity against human A549 cells assessed as inhibition of cell growth incubated for 48 hrs by MTT assay; format: functional, cell-based; conditions: A549, 48 h
[5] = Cytotoxicity against human QSG7701 cells assessed as inhibition of cell growth incubated for 48 hrs by MTT assay; format: toxicity, cell-based

MIC (Escherichia coli): 18.8 µg/mL (≈ 23.7 µM)
MIC [1]: 18.8 µg/mL (≈ 23.7 µM)
MIC (Pseudomonas aeruginosa): 18.8 µg/mL (≈ 23.7 µM)
ΔTm (Calf thymus DNA): 24.3 °C
MIC (Staphylococcus aureus): 18.8 µg/mL (≈ 23.7 µM)
SMILES: O=C1c2ccc3c4c(ccc(c24)C(=O)N1c1nc(-c2cc4cc(Cl)ccc4oc2=O)cs1)C(=O)N(c1nc(-c2cc4cc(Cl)ccc4oc2=O)cs1)C3=O

IC50 (HCT-116): 6.42 µM
IC50 (K562 [2]): 6.42 µM
IC50 (SMMC-7721): 6.42 µM
IC50 (MDA-MB-231): 6.42 µM
IC50 (HepG2): 6.42 µM
SMILES: CN(C)CCN1C(=O)c2cccc3cc(NC(=O)CNCCCCNCCCN)cc(c23)C1=O
IC50 at 48 h [3]: 6.42 µM

MIC (Escherichia coli): 18.8 µg/mL (≈ 21.3 µM)
MIC [1]: 18.8 µg/mL (≈ 21.3 µM)
MIC (Pseudomonas aeruginosa): 18.8 µg/mL (≈ 21.3 µM)
ΔTm (Calf thymus DNA): 0.1 °C
MIC (Staphylococcus aureus): 18.8 µg/mL (≈ 21.3 µM)
SMILES: O=C1c2ccc3c4c(ccc(c24)C(=O)N1c1nc(-c2cc4cc(Br)ccc4oc2=O)cs1)C(=O)N(c1nc(-c2cc4cc(Br)ccc4oc2=O)cs1)C3=O

IC50 (HCT-116): 6.42 µM
IC50 (K562 [2]): 6.42 µM
IC50 (SMMC-7721): 6.42 µM
IC50 (MDA-MB-231): 6.42 µM
IC50 (HepG2): 6.42 µM
SMILES: CN(C)CCN1C(=O)c2cccc3cc(NC(=O)CNCCCCNCCCCNCCCCN)cc(c23)C1=O
IC50 at 48 h [3]: 6.42 µM

SMILES: CN(C)CCN1C(=O)c2cccc3cc(NC(=O)CCCCCN)cc(c23)C1=O
IC50 (K562 [4]): 8.5 µM
IC50 (HeLa): 21.5 µM
IC50 (A549): 4.7 µM

IC50 (HCT-116): 6.42 µM
IC50 (K562 [2]): 6.42 µM
IC50 (SMMC-7721): 6.42 µM
IC50 (MDA-MB-231): 6.42 µM
IC50 (HepG2): 6.42 µM
SMILES: CN(C)CCN1C(=O)c2cccc3cc(NC(=O)CNCCCNCCCCNCCCN)cc(c23)C1=O
IC50 at 48 h [3]: 6.42 µM

SMILES: CN(C)CCN1C(=O)c2cccc3cc(NC(=O)CCCCCNC(=O)C(Cl)Cl)cc(c23)C1=O
IC50 (K562 [4]): 8.5 µM
IC50 (HeLa): 21.5 µM
IC50 (A549): 4.7 µM

MIC (Escherichia coli): 18.8 µg/mL (≈ 18.1 µM)
MIC [1]: 18.8 µg/mL (≈ 18.1 µM)
MIC (Pseudomonas aeruginosa): 18.8 µg/mL (≈ 18.1 µM)
ΔTm (Calf thymus DNA): 0.1 °C
MIC (Staphylococcus aureus): 18.8 µg/mL (≈ 18.1 µM)
SMILES: O=C1c2ccc3c4c(ccc(c24)C(=O)N1c1nc(-c2cc4cc(Br)cc(Br)c4oc2=O)cs1)C(=O)N(c1nc(-c2cc4cc(Br)cc(Br)c4oc2=O)cs1)C3=O

SMILES: CN(C)CCN1C(=O)c2cccc3cc(NC(=O)CN)cc(c23)C1=O
IC50 (K562 [4]): 8.5 µM
IC50 (HeLa): 21.5 µM
IC50 (A549): 4.7 µM

MIC (Escherichia coli): 18.8 µg/mL (≈ 21.8 µM)
MIC [1]: 18.8 µg/mL (≈ 21.8 µM)
MIC (Pseudomonas aeruginosa): 18.8 µg/mL (≈ 21.8 µM)
ΔTm (Calf thymus DNA): 0.1 °C
MIC (Staphylococcus aureus): 18.8 µg/mL (≈ 21.8 µM)
SMILES: O=C1c2ccc3c4c(ccc(c24)C(=O)N1c1nc(-c2cc4cc(Cl)cc(Cl)c4oc2=O)cs1)C(=O)N(c1nc(-c2cc4cc(Cl)cc(Cl)c4oc2=O)cs1)C3=O

SMILES: CN(C)CCN1C(=O)c2cccc3cc(NC(=O)CCNC(=O)C(Cl)Cl)cc(c23)C1=O
IC50 (K562 [4]): 8.5 µM
IC50 (HeLa): 21.5 µM
IC50 (A549): 4.7 µM

MIC (Escherichia coli): 18.8 µg/mL (≈ 32.2 µM)
MIC [1]: 18.8 µg/mL (≈ 32.2 µM)
MIC (Pseudomonas aeruginosa): 18.8 µg/mL (≈ 32.2 µM)
ΔTm (Calf thymus DNA): 0.1 °C
MIC (Staphylococcus aureus): 18.8 µg/mL (≈ 32.2 µM)
SMILES: O=C1c2cccc3cccc(c23)C(=O)N1c1nc(-c2cc3cc(Br)cc(Br)c3oc2=O)cs1

IC50 (HCT-116): 6.42 µM
IC50 (K562 [2]): 6.42 µM
IC50 (SMMC-7721): 6.42 µM
IC50 (MDA-MB-231): 6.42 µM
IC50 (HepG2): 6.42 µM
SMILES: CN(C)CCN1C(=O)c2cccc3cc(NC(=O)CNCCCNCCCNCCCN)cc(c23)C1=O
IC50 at 48 h [3]: 6.42 µM

SMILES: NCCCNCCCCNCCCN1C(=O)c2cccc3cccc(c23)C1=O
IC50 at 48 h [5]: > 50 µM

MIC (Escherichia coli): 18.8 µg/mL (≈ 44.2 µM)
MIC [1]: 18.8 µg/mL (≈ 44.2 µM)
MIC (Pseudomonas aeruginosa): 18.8 µg/mL (≈ 44.2 µM)
ΔTm (Calf thymus DNA): 0.1 °C
MIC (Staphylococcus aureus): 18.8 µg/mL (≈ 44.2 µM)
SMILES: O=C1c2cccc3cccc(c23)C(=O)N1c1nc(-c2cc3ccccc3oc2=O)cs1

IC50 (HCT-116): > 50 µM
IC50 (K562 [2]): > 50 µM
IC50 (SMMC-7721): > 50 µM
IC50 (MDA-MB-231): > 50 µM
IC50 (HepG2): > 50 µM
SMILES: CCCCCCCNC(=O)Nc1cc2c3c(cccc3c1)C(=O)N(CCN(C)C)C2=O
IC50 at 48 h [3]: > 50 µM

SMILES: CN(C)CCN1C(=O)c2cccc3cc(NC(=O)CNC(=O)C(Cl)Cl)cc(c23)C1=O
IC50 (K562 [4]): 8.5 µM
IC50 (HeLa): 21.5 µM
IC50 (A549): 4.7 µM

SMILES: CN(C)CCN1C(=O)c2cccc3cc(NC(=O)CCCNC(=O)C(Cl)Cl)cc(c23)C1=O
IC50 (K562 [4]): 8.5 µM
IC50 (HeLa): 21.5 µM
IC50 (A549): 4.7 µM

MIC (Escherichia coli): 18.8 µg/mL (≈ 40.9 µM)
MIC [1]: 18.8 µg/mL (≈ 40.9 µM)
MIC (Pseudomonas aeruginosa): 18.8 µg/mL (≈ 40.9 µM)
ΔTm (Calf thymus DNA): 0.1 °C
MIC (Staphylococcus aureus): 18.8 µg/mL (≈ 40.9 µM)
SMILES: O=C1c2cccc3cccc(c23)C(=O)N1c1nc(-c2cc3cc(Cl)ccc3oc2=O)cs1

IC50 (HCT-116): > 50 µM
IC50 (K562 [2]): > 50 µM
IC50 (SMMC-7721): > 50 µM
IC50 (MDA-MB-231): > 50 µM
IC50 (HepG2): > 50 µM
SMILES: CN(C)CCN1C(=O)c2cccc3cc(NC(=O)NCCCN)cc(c23)C1=O
IC50 at 48 h [3]: > 50 µM

MIC (Escherichia coli): 18.8 µg/mL (≈ 41.3 µM)
MIC [1]: 18.8 µg/mL (≈ 41.3 µM)
MIC (Pseudomonas aeruginosa): 18.8 µg/mL (≈ 41.3 µM)
ΔTm (Calf thymus DNA): 0.1 °C
MIC (Staphylococcus aureus): 18.8 µg/mL (≈ 41.3 µM)
SMILES: COc1cccc2cc(-c3csc(N4C(=O)c5cccc6cccc(c56)C4=O)n3)c(=O)oc12
